Here are results for 47 compounds from PubChem BioAssay (NCI).

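Dose response: 5 concentrations. Exposure: 48 h. Format: 96-well plates. Endpoint: linear interpolation; highest concentration if not reached. Abbreviation: GI50, concentration required for 50% inhibition of growth. Definition used: TGI = concentration required for complete inhibition of growth.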 Bounds are passed on as bounds.

Some test systems named below: NCI-H226 lung; SF-539 CNS; SW-620 colon.
Common to all, as to assay: NCI anticancer screen, dose series, 48 h

Turning to `COc1ccc(/C=C2\C(=O)N(C)C(=O)c3cc(OC)c(OC)cc32)cc1OC`, the figures for the TGI with NCI-H226 lung, with SF-539 CNS and in the assay on SW-620 colon were 34.7 µM, 76.2 µM and above 100 µM, respectively.
In the same order, the values of `Cc1c(C#N)c2ccccc2c2nc3ccccc3n12` are above 100 µM, above 100 µM and above 100 µM.
The corresponding values for `COC(=O)[C@@H]1C=C[C@H](OC2OC(COC(C)=O)C(OC(C)=O)C(OC(C)=O)C2OC(C)=O)n2c(=O)c3ccccc3c(=O)n21` (some centres not stated) are 46.3 µM, 33.7 µM and 24.9 µM.
In the same order, the values of `Cc1ccc(O)c(C(c2ccc([N+](=O)[O-])cc2)c2cc(C)ccc2O)c1` are 39.9 µM, 32.1 µM and 32.1 µM.
As to `COP(=O)(Cc1ccc(/C=C/C#N)o1)OC`, the TGI with NCI-H226 lung and in the assay on SF-539 CNS was above 100 µM in each case.
In the case of `Cc1cc(NS(=O)(=O)c2ccc(NC(=O)c3ccc4[nH]c5ccccc5c(=O)c4c3)cc2)no1`, the TGI with NCI-H226 lung, in the assay with SF-539 CNS and with SW-620 colon was above 100 µM in each case.
Take `Cc1ccc(S(=O)(=O)n2c3c(c4ccccc42)CCN2C(=O)C(S(=O)(=O)c4ccccc4)=CCC32)cc1` (configuration not stated): the TGI amounted to 0.391 µM in the assay with SF-539 CNS and 0.715 µM in the assay on SW-620 colon.
For the compound `CCCCCCNC(=O)c1cc(CCc2cc(O)ccc2O)ccc1O`, the TGI is 19.8 µM in the assay with NCI-H226 lung, 5.31 µM in the assay with SF-539 CNS and above 75.9 µM in the assay on SW-620 colon. The GI50 in the assay on SF-539 CNS is 2.18 µM.
Take `CN(C)Cc1cc(N=Nc2cccc(Cl)c2)ccc1O`: the values for the TGI in the assay on NCI-H226 lung, with SF-539 CNS and in the assay with SW-620 colon were 50.7 µM, 33 µM and 23.7 µM, respectively.
The corresponding values for `COC(=O)C1=C(C(=O)OC)C(Cc2ccccc2)(OO)OC1=O` (configuration not stated) are 35.9 µM, 17.1 µM and above 100 µM.
In the same order, the values of `Cc1cc2c(cc1Cl)SC(c1ccccc1)C(=O)NS2(=O)=O` (configuration not stated) are above 100 µM, 73.3 µM and above 100 µM.
Turning to `O=C1N(c2ccccc2)C2(c3ccccc3)CC3CCCC13S2` (configuration not stated), the TGI in the assay on NCI-H226 lung, with SF-539 CNS and with SW-620 colon was above 100 µM in each case.
Take `O=[N+]([O-])c1ccc2[nH]nc(OCc3ccccn3)c2c1`: the TGI in the assay on NCI-H226 lung, in the assay with SF-539 CNS and with SW-620 colon was above 100 µM each time.
In the case of `O=C1CCCC2C(O)CCC[C@H]12` (some centres not stated), the TGI in the assay on NCI-H226 lung, with SF-539 CNS and with SW-620 colon was above 100 µM in each case.
With `O=S(=O)(O)CCCC1S(=O)(=O)OCCOS1(=O)=O`, the TGI in the assay on NCI-H226 lung, in the assay on SF-539 CNS and in the assay with SW-620 colon was above 100 µM throughout.
Take `C=CCOC(=O)Cn1cc(C)c(=O)[nH]c1=O`: the TGI with NCI-H226 lung, in the assay with SF-539 CNS and in the assay on SW-620 colon was above 100 µM throughout.
On to `COc1cc2c(c(O)c1OC)C(O)C1CCC(=O)N1C2c1cccc2ccccc12` (configuration not stated), for which the TGI in the assay with NCI-H226 lung, in the assay with SF-539 CNS and in the assay with SW-620 colon was above 100 µM throughout.
Consider `CN(C)c1ccc(/C=C(\NC(=O)c2ccccc2)C(=O)NCC(=O)O)cc1`, for which the TGI with NCI-H226 lung, with SF-539 CNS and with SW-620 colon was above 100 µM throughout.
As to `COc1cc(OC)cc(OCc2ccc3nc(-c4ccccc4)c(Cl)nc3c2)c1`, the values for the TGI in the assay with SF-539 CNS and in the assay with SW-620 colon were 49.9 µM and above 100 µM, respectively.
For `O=c1[nH]c2ccc(Cl)cc2c2oc(-c3ccccc3)nc12`, the TGI in the assay with NCI-H226 lung is 42.3 µM; in the assay on SF-539 CNS it was above 100 µM; with SW-620 colon it was above 100 µM.
Take `n1onc2c1NC1Nc3nonc3NC1N2` (configuration not stated): the TGI with NCI-H226 lung, in the assay with SF-539 CNS and in the assay on SW-620 colon was above 100 µM throughout.
As for `S=C1Cc2c(-c3ccc(Cl)cc3)cc(-c3ccccc3)nc2-c2ccccc2N1`, the results for the TGI in the assay on NCI-H226 lung, in the assay on SF-539 CNS and in the assay on SW-620 colon were 55.7 µM, 16.2 µM and above 100 µM, respectively.
Consider `COc1ccc(/C=C/c2sc3ccccc3[n+]2CCCCI)cc1OC`, for which the TGI in the assay with NCI-H226 lung, with SF-539 CNS and with SW-620 colon was above 10 µM throughout.
Regarding `COc1cc(/C=N/n2c(Cc3ccc(Cl)cc3)n[nH]c2=O)cc(OC)c1OC`, the TGI in the assay with NCI-H226 lung, in the assay with SF-539 CNS and in the assay on SW-620 colon was above 100 µM in each case.
Turning to `C#CCn1ncc2c(SC)ncnc21`, the TGI in the assay with NCI-H226 lung, in the assay on SF-539 CNS and in the assay with SW-620 colon was above 100 µM each time.
Regarding `Cc1n[nH]c(=O)n1C1CCCC1`, the TGI with NCI-H226 lung, in the assay on SF-539 CNS and in the assay with SW-620 colon was above 100 µM each time.
With `Cn1ccc(C(=O)N2CCSC2=S)c(OCc2ccccc2)c1=O`, the TGI in the assay with NCI-H226 lung and in the assay with SW-620 colon was above 100 µM throughout.
Regarding `C=[N+](CNC(=O)CNC(=O)C(Cc1ccc([N+](=O)[O-])cc1)NC(=O)OC(C)(C)C)C(=O)CNC(=O)C(Cc1ccc([N+](=O)[O-])cc1)NC(=O)OC(C)(C)C` (configuration not stated), the TGI in the assay with NCI-H226 lung is above 100 µM; in the assay on SF-539 CNS, 57.9 µM; in the assay on SW-620 colon, above 100 µM.
Consider `COC(=O)CC1C(COC(C)=O)OC(n2cc(C)c(=O)[nH]c2=O)C1OC(C)=O` (configuration not stated), for which the TGI with NCI-H226 lung, in the assay on SF-539 CNS and with SW-620 colon was above 100 µM throughout.
Consider `N#Cc1c2c(c(Nc3cccc(C(F)(F)F)c3)n3c1nc1ccccc13)CCC2`, for which the TGI in the assay on NCI-H226 lung, with SF-539 CNS and in the assay on SW-620 colon was above 100 µM throughout.
As for `Cc1ncc([N+](=O)[O-])n1CCN(C)C(=O)CCCn1ccnc1[N+](=O)[O-]`, the TGI in the assay with NCI-H226 lung, in the assay on SF-539 CNS and in the assay with SW-620 colon was above 100 µM throughout.
For `O=Cc1c2ccccc2n2ccc3c4ccccc4[nH]c3c12`, the TGI with NCI-H226 lung, with SF-539 CNS and with SW-620 colon was above 10 µM throughout.
For `S=c1nc(Cc2ccc(Cl)cc2)[nH][nH]1`, the TGI in the assay on NCI-H226 lung, in the assay with SF-539 CNS and in the assay on SW-620 colon was above 100 µM each time.
Regarding `COc1ccc(NC(=O)CC(=O)N2N=C(c3ccccc3)C(N=Nc3ccc(S(=O)(=O)CCOS(=O)(=O)O)cc3)C2=O)cc1` (configuration not stated), the TGI in the assay with NCI-H226 lung, with SF-539 CNS and in the assay with SW-620 colon was above 100 µM each time.
Regarding `Cc1ccc(Cc2n[nH]c(=O)n2-c2ccccc2)cc1`, the TGI in the assay with NCI-H226 lung, in the assay with SF-539 CNS and in the assay with SW-620 colon was above 100 µM each time.
For the compound `Cc1ccc(Cc2n[nH]c(=O)n2/N=C\CC/C=N\n2c(Cc3ccc(C)cc3)n[nH]c2=O)cc1`, the TGI in the assay with NCI-H226 lung is 65.3 µM; in the assay with SF-539 CNS, 24.9 µM; in the assay on SW-620 colon it was above 100 µM.
With `CC(C)CC[C@H](O)[C@@H](C)[C@H]1[C@@H](OC2OC(C)C(O)C(O)C2O)C[C@H]2[C@@H]3CC=C4C[C@@H](O)CC[C@]4(C)[C@H]3[C@@H](O)C[C@]12C` (some centres not stated), the TGI was 0.578 µM in the assay with SF-539 CNS and above 19.9 µM in the assay on SW-620 colon.
As for `O=C(N/N=C(/COc1ccc(Cl)cc1)N=Cc1cccnc1)c1ccncc1`, the TGI in the assay on NCI-H226 lung, with SF-539 CNS and with SW-620 colon was above 100 µM throughout.
Consider `CC(=O)NNc1nc(C)c(C(/C=C/c2ccc([N+](=O)[O-])cc2)=N/N)s1`, for which the TGI in the assay on NCI-H226 lung, in the assay on SF-539 CNS and in the assay on SW-620 colon was above 100 µM each time.
Regarding `COC(=O)[C@H](Cc1ccccc1)NC(=O)N1CCCN(C(=O)N[C@@H](Cc2ccccc2)C(=O)OC)CCCN(C(=O)N[C@@H](Cc2ccccc2)C(=O)OC)CCC1`, the TGI in the assay on NCI-H226 lung amounted to 31.5 µM; in the assay on SW-620 colon, 39.7 µM.
As to `COCO[C@@H]1C[C@H]2C(=O)N(COC)c3ccccc3C(=O)N2C1`, the TGI with NCI-H226 lung, in the assay on SF-539 CNS and in the assay on SW-620 colon was above 100 µM each time.
Regarding `C/C(=C\c1ccccc1)C(=O)NCc1ccc(C(=O)NCCC(C)C)cc1`, the TGI in the assay with NCI-H226 lung, with SF-539 CNS and in the assay with SW-620 colon was above 100 µM throughout.
Regarding `CC(=O)N1CN2C(=O)CCC2c2ccccc21` (configuration not stated), the TGI in the assay with NCI-H226 lung, with SF-539 CNS and in the assay with SW-620 colon was above 100 µM in each case.
On to `CC(C)C[C@H](NC(=O)[C@H](Cc1ccccc1)NC(=O)CCc1ccccc1)B(O)O`, for which the figures for the TGI with NCI-H226 lung, in the assay on SF-539 CNS and with SW-620 colon were below 0.01 µM, below 0.01 µM and below 0.0104 µM, respectively.
With `CCOC(=O)[C@]12C(=C(c3ccccc3)O[C@H]3C=CCC[C@H]31)C(=O)C(=O)N2c1ccccc1`, the TGI in the assay with SF-539 CNS is above 100 µM.
Take `CCOC(=O)C1C(c2ccc(OC)cc2)c2c([nH]n(-c3ccccc3)c2=O)CC1(O)OCC` (configuration not stated): the TGI in the assay on SF-539 CNS and with SW-620 colon was above 100 µM throughout.
For the compound `CCOc1ccc(Nc2nc3c(s2)C(=O)c2ccccc2C3=O)cc1`, the TGI stood at 35.7 µM in the assay on SF-539 CNS and 15.2 µM in the assay on SW-620 colon.
